The source made the active and inactive calls.
Legend:
[1] = molecular target: Inward rectifier potassium channel 2 (Mus musculus, UniProt P35561); assay: Manual electrophysiological patch clamp assay for SAR compounds that inhibit/block inward-rectifying potassium ion channel Kir2.1. [Related pubchem assays: 1843 (Summary assay for Kir2.1 inhibitor assays.), 1672 (Primary HTS of 305616 compounds where 2592 were identified as active.)]; assay type: functional
[2] = molecular target: Cytochrome P450 2D6 (Homo sapiens, UniProt P10635); assay: qHTS Assay for Inhibitors and Substrates of Cytochrome P450 2D6. [Related pubchem assays: 410 ]; assay type: ADME; details: read-out: Potency
Cytochrome P450 2D6, sequence (P10635 whole entry): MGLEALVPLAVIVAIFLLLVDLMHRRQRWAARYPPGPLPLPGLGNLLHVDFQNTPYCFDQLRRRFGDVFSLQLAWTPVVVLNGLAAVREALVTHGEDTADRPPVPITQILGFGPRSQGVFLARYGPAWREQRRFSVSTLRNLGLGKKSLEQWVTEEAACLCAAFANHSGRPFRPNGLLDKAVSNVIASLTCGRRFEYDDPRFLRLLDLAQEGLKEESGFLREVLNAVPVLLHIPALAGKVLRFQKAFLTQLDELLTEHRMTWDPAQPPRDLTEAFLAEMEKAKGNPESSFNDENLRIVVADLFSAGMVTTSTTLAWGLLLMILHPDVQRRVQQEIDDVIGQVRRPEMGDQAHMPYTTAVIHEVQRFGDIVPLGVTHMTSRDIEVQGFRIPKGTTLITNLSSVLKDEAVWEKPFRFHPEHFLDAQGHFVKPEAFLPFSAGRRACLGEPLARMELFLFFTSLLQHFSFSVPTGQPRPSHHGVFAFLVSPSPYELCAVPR

[3] = molecular target: Cytochrome P450 2C9 (Homo sapiens, UniProt P11712); details: Potency
[4] = Luminescence Cell-Based Dose Retest to Confirm Inhibitors of Cancer Stem Cells. [Related pubchem assays (depositor defined):AID2717, AID2721]; assay type: functional; details: Homo sapiens
[5] = molecular target: Sphingosine 1-phosphate receptor 2 (Homo sapiens, UniProt O95136); assay: Dose Response Cell Based Assay for Agonists of the S1P2 Receptor of Purchased Analogues. [Related pubchem assays: 729, 843, 854, 736 ]; assay type: functional
Sphingosine 1-phosphate receptor 2, sequence (O95136 whole entry): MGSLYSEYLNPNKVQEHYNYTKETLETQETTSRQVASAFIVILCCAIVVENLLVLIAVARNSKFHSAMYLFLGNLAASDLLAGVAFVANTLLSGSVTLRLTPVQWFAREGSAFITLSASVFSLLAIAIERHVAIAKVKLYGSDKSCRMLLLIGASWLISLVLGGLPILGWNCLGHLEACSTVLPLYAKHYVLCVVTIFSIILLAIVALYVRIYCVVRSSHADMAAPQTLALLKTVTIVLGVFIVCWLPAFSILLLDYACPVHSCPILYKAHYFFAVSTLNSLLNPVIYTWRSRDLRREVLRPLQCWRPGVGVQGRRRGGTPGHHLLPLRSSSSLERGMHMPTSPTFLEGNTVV

[6] = molecular target: Lysosomal acid glucosylceramidase (Homo sapiens, UniProt P04062); assay: Dose response cell-based high throughput screening assay to identify enhancers of beta-glucosidase activity. [Related pubchem assays: 784 ]; assay type: functional
[7] = molecular target: T1, Fatty acid synthase (Homo sapiens, UniProt P49327); assay: FAS thioesterase domain inhibitors, dose response, biochemical, kinetic fluorescence intensity (AID 624326); assay type: functional;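 note: rate of fluorescence rise from hydrolysis of a fluorogenic O-methyl fluorescein ester substrate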
T1 sequence (P49327 whole entry, the tested form may be a part): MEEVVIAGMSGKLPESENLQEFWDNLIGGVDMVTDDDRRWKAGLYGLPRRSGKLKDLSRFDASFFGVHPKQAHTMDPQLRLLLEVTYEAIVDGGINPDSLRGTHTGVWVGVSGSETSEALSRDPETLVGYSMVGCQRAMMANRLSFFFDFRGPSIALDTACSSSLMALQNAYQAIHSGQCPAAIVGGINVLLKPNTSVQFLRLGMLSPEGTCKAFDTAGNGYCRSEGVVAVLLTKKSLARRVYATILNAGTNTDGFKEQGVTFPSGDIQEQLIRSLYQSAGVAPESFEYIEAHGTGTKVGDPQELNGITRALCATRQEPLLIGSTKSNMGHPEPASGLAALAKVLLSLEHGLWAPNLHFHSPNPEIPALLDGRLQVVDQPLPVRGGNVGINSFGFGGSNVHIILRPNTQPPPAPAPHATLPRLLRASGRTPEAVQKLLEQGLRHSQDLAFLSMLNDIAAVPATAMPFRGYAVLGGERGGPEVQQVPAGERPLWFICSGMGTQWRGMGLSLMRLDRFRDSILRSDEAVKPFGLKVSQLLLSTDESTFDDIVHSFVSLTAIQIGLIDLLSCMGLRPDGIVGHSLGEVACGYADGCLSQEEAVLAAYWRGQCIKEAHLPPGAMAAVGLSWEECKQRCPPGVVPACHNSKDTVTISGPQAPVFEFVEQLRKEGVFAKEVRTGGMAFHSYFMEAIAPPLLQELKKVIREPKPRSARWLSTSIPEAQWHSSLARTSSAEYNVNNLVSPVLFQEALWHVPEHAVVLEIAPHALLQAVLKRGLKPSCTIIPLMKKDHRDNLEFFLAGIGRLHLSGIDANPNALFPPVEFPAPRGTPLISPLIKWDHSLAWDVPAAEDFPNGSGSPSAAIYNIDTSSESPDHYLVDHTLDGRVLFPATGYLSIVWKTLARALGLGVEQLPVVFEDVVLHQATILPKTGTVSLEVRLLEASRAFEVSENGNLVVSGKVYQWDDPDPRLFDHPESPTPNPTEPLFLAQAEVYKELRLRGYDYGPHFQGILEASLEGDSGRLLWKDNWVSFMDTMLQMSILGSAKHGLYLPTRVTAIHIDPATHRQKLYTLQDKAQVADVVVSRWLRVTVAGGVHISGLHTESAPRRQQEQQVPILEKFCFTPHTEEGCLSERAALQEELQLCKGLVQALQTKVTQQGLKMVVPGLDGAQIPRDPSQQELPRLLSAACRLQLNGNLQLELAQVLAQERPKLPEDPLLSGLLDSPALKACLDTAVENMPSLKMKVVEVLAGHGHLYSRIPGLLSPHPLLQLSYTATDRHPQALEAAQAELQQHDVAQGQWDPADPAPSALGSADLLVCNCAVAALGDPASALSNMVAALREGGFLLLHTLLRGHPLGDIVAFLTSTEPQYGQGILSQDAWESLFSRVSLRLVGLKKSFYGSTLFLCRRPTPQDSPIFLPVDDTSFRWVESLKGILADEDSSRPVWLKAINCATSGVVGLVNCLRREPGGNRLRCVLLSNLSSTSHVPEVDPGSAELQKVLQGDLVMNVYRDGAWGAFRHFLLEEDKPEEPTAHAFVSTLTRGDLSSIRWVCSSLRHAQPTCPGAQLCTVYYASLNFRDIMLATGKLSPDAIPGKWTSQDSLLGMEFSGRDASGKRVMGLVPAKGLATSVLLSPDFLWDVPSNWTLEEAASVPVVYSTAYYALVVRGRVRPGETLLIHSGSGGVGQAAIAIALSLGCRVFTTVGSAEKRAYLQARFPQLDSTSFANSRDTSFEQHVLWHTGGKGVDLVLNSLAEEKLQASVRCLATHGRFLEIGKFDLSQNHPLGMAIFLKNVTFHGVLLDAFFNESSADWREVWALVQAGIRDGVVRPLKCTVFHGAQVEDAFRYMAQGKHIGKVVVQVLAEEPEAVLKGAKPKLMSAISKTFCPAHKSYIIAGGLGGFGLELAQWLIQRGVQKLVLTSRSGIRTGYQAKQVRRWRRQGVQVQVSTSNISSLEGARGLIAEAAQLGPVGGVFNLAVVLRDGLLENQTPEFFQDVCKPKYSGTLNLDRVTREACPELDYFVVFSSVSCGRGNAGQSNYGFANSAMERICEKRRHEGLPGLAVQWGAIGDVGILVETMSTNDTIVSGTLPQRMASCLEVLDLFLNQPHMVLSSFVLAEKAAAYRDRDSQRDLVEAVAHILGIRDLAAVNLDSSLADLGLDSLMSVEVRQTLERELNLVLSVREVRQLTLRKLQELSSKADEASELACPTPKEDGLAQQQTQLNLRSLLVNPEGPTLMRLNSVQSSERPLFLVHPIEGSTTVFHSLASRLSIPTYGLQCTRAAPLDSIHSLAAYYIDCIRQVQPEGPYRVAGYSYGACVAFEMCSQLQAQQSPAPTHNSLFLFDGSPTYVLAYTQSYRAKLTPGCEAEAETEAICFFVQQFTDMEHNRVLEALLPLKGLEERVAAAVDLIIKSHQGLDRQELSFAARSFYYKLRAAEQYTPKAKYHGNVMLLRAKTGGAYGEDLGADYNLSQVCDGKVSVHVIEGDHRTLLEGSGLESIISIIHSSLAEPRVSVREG

[8] = molecular target: T1, Fatty acid synthase; assay: FAS thioesterase domain inhibitors, dose response, biochemical, endpoint fluorescence intensity, uHTS hits (AID 624327); assay type: functional;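 note: fluorescence from hydrolysis of an O-methyl fluorescein acyl ester substrate by the enzyme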
[9] = molecular target: T2, Induced myeloid leukemia cell differentiation protein Mcl-1 (Homo sapiens, UniProt Q07820); assay type: functional
T2 sequence (Q07820 whole entry): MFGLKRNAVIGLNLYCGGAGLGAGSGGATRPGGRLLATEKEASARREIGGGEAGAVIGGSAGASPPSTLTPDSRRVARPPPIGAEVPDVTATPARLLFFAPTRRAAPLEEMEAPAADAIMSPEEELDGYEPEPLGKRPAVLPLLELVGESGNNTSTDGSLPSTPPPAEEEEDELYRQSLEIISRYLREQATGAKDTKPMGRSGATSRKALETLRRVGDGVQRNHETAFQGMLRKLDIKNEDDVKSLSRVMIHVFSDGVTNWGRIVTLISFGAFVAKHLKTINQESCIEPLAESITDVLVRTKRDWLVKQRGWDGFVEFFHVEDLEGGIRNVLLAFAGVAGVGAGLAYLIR

[10] = molecular target: Bcl-2-like protein 1 (Homo sapiens, UniProt Q07817); assay: BCL-XL inhibitors, dose response, selectivity assay for MCL1 inhibitor project, biochemical, fluorescence polarization, 1536-well (AID 2218)
Bcl-2-like protein 1, sequence (Q07817 whole entry): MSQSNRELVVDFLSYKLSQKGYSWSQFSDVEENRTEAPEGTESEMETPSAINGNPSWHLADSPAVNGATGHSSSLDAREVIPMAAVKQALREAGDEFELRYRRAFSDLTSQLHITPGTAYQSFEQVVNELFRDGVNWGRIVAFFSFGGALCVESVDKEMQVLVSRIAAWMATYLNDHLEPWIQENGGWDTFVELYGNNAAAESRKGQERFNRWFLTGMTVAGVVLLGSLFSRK

[11] = molecular target: Genome polyprotein (dengue virus type 2, UniProt P29990); assay: Dengue-2 NS5 methyltransferase inhibitors, primary screen, biochemical, confirmation dose response (AID 588689); assay type: functional
[12] = molecular target: T2, Induced myeloid leukemia cell differentiation protein Mcl-1; assay: MCL1-BIM BH3 interaction inhibitors, dose response, biochemical, fluorescence polarization, BIM-BH3 peptide, 1536-well (AID 2217)
[13] = molecular target: 26S proteasome non-ATPase regulatory subunit 14 (Homo sapiens, UniProt O00487); assay: inhibition of proteasome subunit RPN11 – biochemical, fluorescence polarization, uHTS hits, confirmation (AID 602368); assay type: functional
26S proteasome non-ATPase regulatory subunit 14, sequence (O00487 whole entry): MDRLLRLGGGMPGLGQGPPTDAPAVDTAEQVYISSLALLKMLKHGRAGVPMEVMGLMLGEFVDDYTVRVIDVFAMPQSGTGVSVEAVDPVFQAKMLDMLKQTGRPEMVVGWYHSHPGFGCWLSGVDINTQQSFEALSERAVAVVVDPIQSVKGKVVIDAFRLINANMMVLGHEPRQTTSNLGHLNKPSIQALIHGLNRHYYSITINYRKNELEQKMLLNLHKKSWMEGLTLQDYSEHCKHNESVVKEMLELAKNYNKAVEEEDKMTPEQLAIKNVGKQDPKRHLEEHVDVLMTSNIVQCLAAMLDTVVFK

[14] = molecular target: Prothrombin (Bos taurus, UniProt P00735); assay: thrombin inhibition, dose response, biochemical, fluorescence polarization, uHTS hits (AID 602369); assay type: functional
[15] = enhancers of respiration in Yfh1-depleted yeast, dose response, Friedreich's ataxia, plus single-dose screen (AID 1465); assay type: functional;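 note: yeast depleted of Yfh1p frataxin homolog grown on glycerol needing respiration; WST-1 tetrazolium dye reduction as measure of cellular dehydrogenase metabolic activity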
[16] = molecular target: 72 kDa type IV collagenase (Homo sapiens, UniProt P08253); assay: Dose Response validation of uHTS RPN11 inhibitor hits using a MMP-2 Fluorescence assay.; assay type: functional
72 kDa type IV collagenase, sequence (P08253 whole entry): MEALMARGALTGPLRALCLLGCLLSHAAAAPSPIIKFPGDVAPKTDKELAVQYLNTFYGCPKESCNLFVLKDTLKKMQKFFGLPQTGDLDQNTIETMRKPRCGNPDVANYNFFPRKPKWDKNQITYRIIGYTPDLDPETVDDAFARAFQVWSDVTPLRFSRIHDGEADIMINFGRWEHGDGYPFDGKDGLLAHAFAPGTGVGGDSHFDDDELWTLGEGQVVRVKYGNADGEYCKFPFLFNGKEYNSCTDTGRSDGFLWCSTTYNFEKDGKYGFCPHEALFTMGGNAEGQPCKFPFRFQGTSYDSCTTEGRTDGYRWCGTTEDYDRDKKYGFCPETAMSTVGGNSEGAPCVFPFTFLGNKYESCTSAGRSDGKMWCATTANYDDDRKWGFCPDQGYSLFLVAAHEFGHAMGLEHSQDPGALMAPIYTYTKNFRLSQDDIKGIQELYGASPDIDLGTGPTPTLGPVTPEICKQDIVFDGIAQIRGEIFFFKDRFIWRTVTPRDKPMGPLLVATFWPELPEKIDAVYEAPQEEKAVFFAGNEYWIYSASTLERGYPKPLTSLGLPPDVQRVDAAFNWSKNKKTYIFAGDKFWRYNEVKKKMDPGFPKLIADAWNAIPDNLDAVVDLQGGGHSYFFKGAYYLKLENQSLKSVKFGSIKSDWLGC

[17] = system: BJ; assay: cytotoxicity toward BJ-TERT fibroblasts, dose response, cell-based, RAS-independent, luminescence (AID 1933); assay type: functional; details: Homo sapiens
[18] = luciferase reporter signal reduction – luminescence, H4-C neuroglioblastoma cells, dose response (AID 2458); assay type: functional, cell-based;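 note: H4 neuroglioblastoma cells stably carrying a luciferase reporter gene fusion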
[19] = inhibitors of SNCA 5'UTR-driven translation, confirmation, luminescence, H4 neuroglioblastoma cells, dose confirmation (AID 2454); assay type: functional, cell-based;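 note: H4 neuroglioblastoma cells carrying an alpha-synuclein 5'UTR luciferase reporter; potency for inhibition of the luciferase signal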
[20] = system: BJ; assay: cytotoxicity toward BJ-TERT-LT-ST fibroblasts, dose response, cell-based, RAS-independent, luminescence (AID 1935); assay type: functional; details: Homo sapiens;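 note: BJ fibroblasts immortalized with TERT plus LT and ST oncogenes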
[21] = cells; assay type: functional, cell-based
[22] = system: BJ; assay: cells; assay type: functional, cell-based; details: Homo sapiens
[23] = cytotoxicity toward DRD oncogenic fibroblasts, dose response, cell-based, non-viral oncogenic, luminescence (AID 1934); assay type: functional; details: Homo sapiens
[24] = inhibitors of SNCA 5'UTR-driven reporter translation, confirmation, H4 neuroglioma cells, luminescence (AID 1988); assay type: functional, cell-based
[25] = molecular target: T3, Neuropeptide Y receptor type 2 (Homo sapiens, UniProt P49146); assay: Fluorescence-based cell-based high-throughput dose response assay for agonists of NPY-Y2. [Related pubchem assays: 1703 (Screening assay (CNGC inhibitors).), 1359 (Screening assay (NPY-Y2 potentiators or agonists).), 1304 (Screening assay (NPY-Y1 potentiators or agonists).), 1710 (Screening assay (NPY-Y2 agonists).), 1791 (Summary AID.)]; assay type: functional
T3 sequence (P49146 whole entry): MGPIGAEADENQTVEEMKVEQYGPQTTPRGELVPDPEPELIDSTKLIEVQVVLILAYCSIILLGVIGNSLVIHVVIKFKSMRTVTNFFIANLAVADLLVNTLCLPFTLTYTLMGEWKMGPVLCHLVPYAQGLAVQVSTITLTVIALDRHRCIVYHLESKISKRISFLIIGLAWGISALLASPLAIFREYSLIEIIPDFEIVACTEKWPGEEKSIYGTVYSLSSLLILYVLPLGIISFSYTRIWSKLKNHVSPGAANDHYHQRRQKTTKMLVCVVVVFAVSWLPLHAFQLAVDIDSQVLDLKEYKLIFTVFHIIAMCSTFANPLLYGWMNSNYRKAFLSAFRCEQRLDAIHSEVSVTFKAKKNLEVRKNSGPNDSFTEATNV

[26] = system: HEK293; assay: Fluorescence-based counterscreen for potentiators or agonists of NPY-Y2: cell-based high-throughput dose response assay to identify inhibitors of cyclic nucleotide gated ion channel (CNGC) activity. In this assay, the parental HEK293 cell line transfected with a cyclic-nucleotide gated ion channel (CNGC)-based cAMP sensor is used to measure inhibition of isoproterenol-induced CNGC activity by test compound.; assay type: functional; details: Homo sapiens;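 note: stimulus is 1 µM isoproterenol at EC100 plus PDE inhibitor Ro 20-1724 at 25 µM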
[27] = molecular target: T3, Neuropeptide Y receptor type 2; assay: Fluorescence-based cell-based high-throughput dose response assay for potentiators or agonists of NPY-Y2. [Related pubchem assays: 1539 (Screening assay (NPY-Y2 potentiators or agonists).), 1703 (Screening assay (CNGC inhibitors).), 1359 (Screening assay (NPY-Y2 potentiators or agonists).), 1304 (Screening assay (NPY-Y1 potentiators or agonists).) …; assay type: functional
[28] = molecular target: T4, Neuropeptide Y receptor type 1 (Homo sapiens, UniProt P25929); assay: Fluorescence-based counterscreen for potentiators or agonists of NPY-Y2: cell-based high-throughput dose response assay for potentiators or agonists of NPY-Y1.; assay type: functional
T4 sequence (P25929 whole entry): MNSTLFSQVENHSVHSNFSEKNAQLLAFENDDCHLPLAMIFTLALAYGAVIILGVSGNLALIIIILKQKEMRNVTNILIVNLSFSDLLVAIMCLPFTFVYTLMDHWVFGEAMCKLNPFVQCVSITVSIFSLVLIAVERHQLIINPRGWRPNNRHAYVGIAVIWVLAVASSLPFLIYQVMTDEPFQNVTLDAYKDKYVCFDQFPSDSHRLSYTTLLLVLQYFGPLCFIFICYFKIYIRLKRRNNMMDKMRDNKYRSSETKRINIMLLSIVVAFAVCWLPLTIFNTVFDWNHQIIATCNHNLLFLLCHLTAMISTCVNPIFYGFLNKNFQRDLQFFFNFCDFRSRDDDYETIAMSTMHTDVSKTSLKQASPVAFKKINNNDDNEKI

[29] = molecular target: T4, Neuropeptide Y receptor type 1; assay: Fluorescence-based counterscreen for agonists of NPY-Y2: cell-based high-throughput dose response assay for agonists of NPY-Y1.; assay type: functional

COc1ccc(CNCc2cc(F)cc(F)c2)cc1
IC50 [1]: 7.22 µM (active)

CC(=O)OC(C)(C)/N=N\c1ccc(Br)cc1
AC50 [2]: 3.16 µM (inconclusive) | AC50 [3]: 5.01 µM (inconclusive)

Cc1cc(C(=O)CN2C(=O)C(=O)N(Cc3ccccc3)C2=O)c(C)n1Cc1ccccc1
AC50 [4]: 2.54 µM (active) | EC50 [5]: > 30 µM (not active)

N#Cc1c2n(c3c(=O)n(Cc4ccccc4Cl)cnc13)CCCCC2
EC50 [6]: > 50 µM (not active)

O=C(O)COc1ccccc1C(Nc1ccccn1)c1cc(Cl)c2cccnc2c1O (centres undefined)
IC50 [7]: 14.3 µM (active) | IC50 [8]: 18.5 µM (active) | IC50 [9]: 9.35 µM (active) | IC50 [10]: > 109 µM (not active) | IC50 [11]: 43.3 µM (active) | IC50 [12]: 1.74 µM (active)

CC(=O)N1CCc2cc(NN=C3C(=O)CC(C)(C)CC3=O)ccc21
IC50 [13]: 35.5 µM (active) | IC50 [14]: 31.5 µM (active) | EC50 [15]: > 100 µM (active) | IC50 [16]: > 100 µM (inactive)

CCOc1ccc(S(=O)(=O)Nc2cc(OC)ccc2OC)cc1
EC50 [17]: 0.451 µM (active) | EC50 [18]: 0.553 µM (active) | EC50 [19]: 0.947 µM (active) | EC50 [20]: 0.495 µM (inconclusive) | EC50 [21]: 0.839 µM (active) | EC50 [22]: 21.2 µM (active) | EC50 [23]: 0.965 µM (inconclusive) | EC50 [24]: < 0.1 µM (active)

Cc1cccc2c(N)c3c(nc12)CCCC3.O=C(O)c1cc([N+](=O)[O-])ccc1Cl
EC50 [25]: 3.65 µM (active) | EC50 [26]: 8.74 µM (active) | EC50 [27]: 5.24 µM (active) | EC50 [28]: 5.53 µM (active) | EC50 [29]: 3.41 µM (active)
